# Source: patent US7320996B2, “Indolinone protein kinase inhibitors and cyclooxygenase inhibitors for use in combination therapy for the treatment of cancer” (Sugen, Inc, priority 2001, dated 2008)
# Where “and” joins values, the source holds several entries; their conditions need not be identical. Identical values can stand only once. Like-named read-outs stand apart in the source and are kept apart here.
# Assays:
# B16-F1 cells = test: B16-F1 mouse melanoma lung colonization model; type: in vivo, athymic mice; details: 80 mg/kg/day oral for 24 days; P <0.001
# From the text: In addition to supporting the sustained growth of solid primary tumors, angiogenesis is also an essential component supporting the development of disseminated disease due to metastasis from the primary tumor. […] In this model, B16-F1 cells inoculated intravenously via the tail vein of athymic mice colonize the lungs and form tumors. […] .
# Briefly, the results shown in Table 8 were obtained using athymic mice that had been inoculated with B16-F1 tumor cells (5×10^5 cells/mouse) via the tail vein. […] . At the end of the treatment period, the mice were sacrificed and their lungs removed and weighed. […] .
# HT29 cells = test: cells; details: Homo sapiens, HT-29
# HUVECs = test: VEGF-mediated HUVEC survival (PARP cleavage); type: cell-based, human; details: PARP cleavage as readout for apoptosis
# From the text: In these experiments, cleavage of the caspase 3 substrate poly-ADP-ribosyl polymerase (PARP) was used as a readout for apoptosis.
# SF767T cells = test: cells; details: Homo sapiens
# A549 cells = test: cells; details: Homo sapiens
# NCI-H460 tumors = test: NCI-H460 subcutaneous xenograft
# c-kit = molecular target: T1, c-kit (Homo sapiens, UniProt P10721); test: SCF-stimulated c-kit phosphorylation in AML blasts of patients; type: cell-based; details: AML blasts from peripheral blood of patients
# T1 construct: was determined using MO7E cells that express this receptor; endogenous in cells; host or cells: MO7E
# T1 sequence (P10721 26-976): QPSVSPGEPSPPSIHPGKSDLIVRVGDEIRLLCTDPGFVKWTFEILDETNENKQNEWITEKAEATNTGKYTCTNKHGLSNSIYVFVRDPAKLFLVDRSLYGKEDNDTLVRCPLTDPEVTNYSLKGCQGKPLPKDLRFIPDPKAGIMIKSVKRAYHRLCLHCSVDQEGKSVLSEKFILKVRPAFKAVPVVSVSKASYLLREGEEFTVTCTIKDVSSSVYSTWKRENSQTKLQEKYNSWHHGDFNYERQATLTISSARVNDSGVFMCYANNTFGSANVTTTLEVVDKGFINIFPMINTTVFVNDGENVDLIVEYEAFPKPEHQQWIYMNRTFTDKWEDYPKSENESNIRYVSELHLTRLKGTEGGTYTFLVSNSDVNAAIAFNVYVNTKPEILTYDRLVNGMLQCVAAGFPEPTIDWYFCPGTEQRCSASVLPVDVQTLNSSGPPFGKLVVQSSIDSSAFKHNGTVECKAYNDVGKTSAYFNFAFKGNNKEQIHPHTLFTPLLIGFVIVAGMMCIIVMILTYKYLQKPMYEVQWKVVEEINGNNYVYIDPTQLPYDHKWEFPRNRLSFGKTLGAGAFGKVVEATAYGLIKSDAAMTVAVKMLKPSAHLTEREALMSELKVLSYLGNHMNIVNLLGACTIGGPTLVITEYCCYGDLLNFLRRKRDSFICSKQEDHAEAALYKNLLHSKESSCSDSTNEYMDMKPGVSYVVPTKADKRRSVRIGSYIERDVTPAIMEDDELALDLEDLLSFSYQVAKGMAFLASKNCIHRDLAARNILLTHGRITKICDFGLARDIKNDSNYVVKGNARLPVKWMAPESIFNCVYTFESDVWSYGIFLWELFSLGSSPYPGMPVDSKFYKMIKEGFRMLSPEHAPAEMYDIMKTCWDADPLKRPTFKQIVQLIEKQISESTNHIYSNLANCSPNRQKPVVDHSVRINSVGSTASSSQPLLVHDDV
# NCI-H460 cells = test: cells; details: Homo sapiens
# SF763T tumors = test: SF763T subcutaneous xenograft; type: in vivo, athymic mice
# Colo205 tumors = test: Colo205 subcutaneous xenograft
# [1] = tested on: HT-29 human colon cancer cells; test: HT-29 Model; type: in vivo, nude mice; details: HT-29 assay A
# [2] = tested on: HT-29 human colon cancer cells; test: HT-29 Model; type: in vivo, nude mice
# Procedure: Mice were injected subcutaneously in the left paw (1×10^6 tumor cells suspended in 30% Matrigel) and tumor volume was evaluated using a phlethysmometer twice a week for 30-60 days. Implantation of human colon cancer cells (HT-29) into nude mice produces tumors that will reach 0.6-2 ml between 30-50 days. […] The data are expressed as the mean+/−SEM. Student's and Mann-Whitney tests were used to assess differences between means using the InStat software package.
# The efficacy of both agents were determined by measuring tumor volume.
structure (smiles),measurement,setting,value
CCN(CC)CCNC(=O)c1c(C)[nH]c(/C=C2\C(=O)Nc3ccc(F)cc32)c1C [Compound 80],% Inhibition (lung weight),B16-F1 cells,50%
same,IC50,HT29 cells,10 µM
same,effect on VEGF-mediated HUVEC survival,HUVECs,inhibited VEGF-mediated HUVEC survival in a dose-dependent manner
same,IC50,SF767T cells,7.9 µM
same,IC50,A549 cells,9.5 µM
same,tumor response to treatment,NCI-H460 tumors; 80 mg/kg/day oral,arrested or greatly slowed
same,% Inhibition,"NCI-H460 tumors; initial tumor volume 300 mm^3, 80 mg/kg once daily oral, day 54, P 0.003",61 (54) %
same,SCF-stimulated c-kit phosphorylation,c-kit,inhibited
same,tumor response to treatment,A431 tumors; 80 mg/kg/day oral,regressed
same,efficacy against established A431 tumors versus 80 mg/kg/day dose,"A431 tumors; 160 mg/kg/day, preliminary experiments",not more efficacious
same,complete regression of the tumors,"A431 tumors; initial 100 mm^3, 80 mg/kg/day for 21 days",six of the eight animals
same,% Inhibition of tumor growth,"A431 tumors; initial tumor volume 100 mm^3, 10 mg/kg/day oral, day 40, P 0.059",61 (40) %
same,% Inhibition of tumor growth,"A431 tumors; initial tumor volume 100 mm^3, 40 mg/kg/day oral, day 40, P 0.015",75 (40) %
same,% Inhibition of tumor growth,"A431 tumors; initial tumor volume 100 mm^3, 80 mg/kg/day oral, day 40, P 0.002",93 (40) %
same,% Inhibition of tumor growth,"A431 tumors; initial tumor volume 400 mm^3, 20 mg/kg/day oral, day 36, P 0.130",51 (36) %
same,% Inhibition of tumor growth,"A431 tumors; initial tumor volume 400 mm^3, 40 mg/kg/day oral, day 36, P 0.003",74% and 74 (36) %
same,% Inhibition of tumor growth,"A431 tumors; initial tumor volume 400 mm^3, 80 mg/kg/day oral, day 36, P 0.001",84% and 84 (36) %
same,tumor regrowth after end of treatment,A431 tumors; the six animals with complete regression,did not regrow during a 110-day observation period
same,response of regrown tumors to a second round of treatment,A431 tumors; two animals with tumors regrown to 2000-3000 mm^3,regressed
same,IC50,NCI-H460 cells,8.9 µM
same,tumor response to treatment,SF763T tumors; 80 mg/kg/day oral,arrested or greatly slowed
same,% Inhibition,"SF763T tumors; initial tumor volume 550 mm^3, 80 mg/kg once daily oral, day 30, P 0.001",53 (30) %
same,PDGFRβ tyrosine phosphorylation in established tumors,SF763T tumors; oral administration,strongly inhibited
same,levels of phosphorylated (activated) phospholipase C gamma (PLC-γ) in tumors,SF763T tumors; oral administration,reduced
same,% Inhibition,"Colo205 tumors; 40 mg/kg daily oral, tumors 400 mm^3 at start, P 0.028",84%
same,% Inhibition,"Colo205 tumors; 40 mg/kg twice weekly oral, tumors 400 mm^3 at start, NS",36%
same,% Inhibition,"Colo205 tumors; 80 mg/kg daily oral, tumors 400 mm^3 at start, P 0.039",91%
same,% Inhibition,"Colo205 tumors; 80 mg/kg once weekly oral, tumors 400 mm^3 at start, NS",0%
same,% Inhibition,"Colo205 tumors; 80 mg/kg twice weekly oral, tumors 400 mm^3 at start, NS",19%
same,tumor response to treatment,Colo205 tumors; 80 mg/kg/day oral,regressed
same,% Inhibition,"Colo205 tumors; 160 mg/kg once weekly oral, tumors 400 mm^3 at start, NS",17%
same,% Inhibition,"Colo205 tumors; 160 mg/kg twice weekly oral, tumors 400 mm^3 at start, P 0.085",52%
same,% Inhibition,"Colo205 tumors; initial tumor volume 370 mm^3, 80 mg/kg once daily oral, day 54, P 0.028",77 (54) %
"Cc1cc(C)c(/C=C2\C(=O)N(CN3CCN(C)CC3)c3ccccc32)[nH]1 [Example 205, (3Z)-3-[(3,5-dimethyl-1H-pyrrol-2-yl)-methylidene]-1-[1-(4-methylpiperazinyl)methyl]-dihydro-2H-indol-2-one]",melting point,,160 to 164 °C
"Cc1cc(C)c(/C=C2\C(=O)N(CN3CCCC3)c3ccccc32)[nH]1 [Example 206, (3Z)-3-[(3,5-dimethyl-1H-pyrrol-2-yl)-methylidene]-1-(1-pyrrolidinylmethyl)-1,3-dihydro-2H-indol-2-one]",melting point,,129 to 132 °C
"NS(=O)(=O)c1ccc(-n2nc(C(F)(F)F)cc2-c2ccc(Cl)cc2)cc1 [SC-58236, 4-[5-(4-chorophenyl)-3-(trifluoromethyl)-1H-pyrazole-1-yl]benzenesulfonamide]",formation of lung metastasis,[1],completely inhibited
same,reduction of tumor volume,[2]; HT-29 assay A,89%
COc1ccc2c(c1)c(CC(=O)O)c(C)n2C(=O)c1ccc(Cl)cc1 [indomethacin],formation of lung metastasis,[1],ineffective
same,inhibition of tumor formation,"[2]; 2 mg/kg/day in the drinking water, near the maximum tolerated dose",77%
